Data: publication PMC5472792, “Bub1 positions Mad1 close to KNL1 MELT repeats to promote checkpoint signalling” (Nature Communications, 2017)
Square brackets hold non-standard residues; d marks the D form. Peptide text beside a SMILES is read from it. * marks the point of attachment. Biotin = O=C1N[C@H]2[C@H](CS[C@H]2CCCCC(=O)*)N1; pT = C[C@@H](OP(=O)(O)O)[C@H](N)C(=O)O; Nle = CCCC[C@H](N)C(=O)O

Biological target: T1, Mad1 597–718 (Homo sapiens, UniProt Q9Y6D9)
T1 construct: His (N); Strep (N); made in house; host or cells: E. coli BL21(DE3)
T1 sequence (Q9Y6D9 597-718): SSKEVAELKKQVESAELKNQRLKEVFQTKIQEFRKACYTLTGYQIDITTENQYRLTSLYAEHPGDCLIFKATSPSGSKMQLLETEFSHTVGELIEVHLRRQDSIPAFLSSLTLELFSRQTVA
Assay: SPR, binding of CD1 peptides to Mad1 597–718 (steady-state affinity)
Conditions: ratio of Kd, SPR, Mad1 597–718
Text: To further investigate a possible direct interaction between Mad1 and CD1, we used surface plasmon resonance technology. […] To achieve a more efficient synthesis of CD1 peptides and in particularly of the phosphorylated peptides we used norleucine (Nle) instead of methionine (Met) but we cannot exclude that Mad1 will have a different affinity for peptides containing methionine. […] Given that Ser459 and Thr461 phosphorylation was critical for Bub1 functionality in vivo we tested if they affected Mad1 597–718 binding. […] As the Mad1 RLK motif is required for binding Bub1 in budding yeast in vivo[39], we tested whether this motif was required for direct binding to CD1 phosphorylated on Thr461. […] We furthermore analysed the binding of Mad1 597–718 to CD1 peptides harboring the Ile471Asp and […] (residues 474–476) mutations with Thr461 being phosphorylated.
Figure 4 Direct binding of Mad1 to CD1 peptide. (a) SPR steady-state responses for control, WT, pS459, pT461, pS459/pT461, I471D, MFQ/RKK and control Bub1 CD1 peptides to purified Mad1 597–718 protein. The biotinylated peptides were captured on a streptavidin-coated CM5 chip and increasing concentrations of Mad1 were subsequently added for binding assessment. Empty symbols represent experimental data points from two technical replicates using the same chip. An additional independent experiment with two replicates has been performed giving in all cases consistent results. The equilibrium dissociation constants, KD, were calculated using a steady-state affinity model and the lines represent the best fit to the model. […] (b) Similar to a, SPR steady-state responses for pT461 peptide with purified Mad1 597–718 or Mad1 597–718 RLK/AAA or the Mad1 485–718/Mad2 complex. (c) Sequence and summary of the affinity of CD1 peptides for Mad1 597–718 as determined by SPR.
Bub1 peptides were purchased from Biosyntan Gmbh (Germany). The purity obtained in the synthesis was 95–98% as determined by high-performance liquid chromatography (HPLC) and the identity of the peptides was confirmed by mass spectrometry. SPR experiments were performed on a Biacore T200 (GE Healthcare) at 25 °C. Streptavidin (ThermoFisher Scientific) at 0.05 mg ml^−1 in 10 mM sodium acetate, pH 4.5, was directly immobilized on a CM5 sensor chip (GE Healthcare) by standard amine coupling chemistry with N-hydroxysuccinimide and N-ethly-N′-(3-dimethlyaminopropyl)carbodiimide up to an immobilization level of approximately 2000 RU. Unreacted sites were quenched with ethanolamine HCl. Subsequently, N-terminal biotinylated Bub1 peptides (at 10 nM in HBS-EP+ buffer and flow rate 5 μl min^−1) were captured at ∼50 RU, respectively, in channels 2, 3 and 4 of the streptavidin coated chip, leaving channel 1 free for reference. An identical approach was used to prepare a second CM5 chip with the negative controls. In this case, a N-terminal biotinylated 5A mutant, a non-related phosphorylated peptide and the Bub1 pT461 peptide were captured, respectively, in channels 2, 3 and 4. HBS-EP+ (10 mM Hepes, pH 7.4, 150 mM NaCl, 3 mM EDTA, 0.05% (v/v) Surfactant P20) was used as running buffer for both streptavidin immobilization and peptide capture. […] Sensorgrams were analysed after double referencing. […]

## CCCC[C@H](NC(=O)[C@H](CC(N)=O)NC(=O)[C@H](CCCC)NC(=O)[C@@H](NC(=O)[C@H](Cc1ccccc1)NC(=O)CNC(=O)[C@H](CC(C)C)NC(=O)[C@H](C)NC(=O)[C@H](CCC(=O)O)NC(=O)[C@H](CCCCN)NC(=O)[C@@H](NC(=O)[C@H](Cc1c[nH]cn1)NC(=O)[C@@H](NC(=O)[C@@H](NC(=O)[C@@H]1CCCN1C(=O)[C@H](CO)NC(=O)[C@@H]1CCCN1C(=O)[C@H](CCC(N)=O)NC(=O)[C@@H](NC(=O)[C@H](CCCCN)NC(=O)[C@H](CO)NC(=O)[C@@H]1CCCN1C(=O)[C@@H](NC(=O)[C@H](C)NC(=O)[C@H](CCC(N)=O)NC(=O)[C@@H](NC(=O)CCCC[C@@H]1SC[C@@H]2NC(=O)N[C@@H]21)C(C)C)[C@@H](C)O)C(C)C)[C@@H](C)OP(=O)(O)O)C(C)C)[C@@H](C)O)[C@@H](C)CC)C(=O)N[C@@H](Cc1ccccc1)C(=O)N[C@@H](CCC(N)=O)C(=O)N[C@@H](C)C(=O)N1CCC[C@H]1C(=O)N[C@H](C(=O)N[C@@H](CC(C)C)C(=O)N[C@@H](Cc1c[nH]c2ccccc12)C(=O)O)[C@@H](C)O [CD1 pT461] (Biotin-VQATPSKVQPSP[pT]VHTKEALGFI[Nle]N[Nle]FQAPTLW-OH; C-terminus assumed)
  stronger binding to Mad1 than unphosphorylated CD1 peptide: 10 fold
